Measurements from US9328122B2, “7-substituted Hanfangichin B derivative, and preparation method and use thereof” (HANGZHOU BENSHENG PHARMACEUTICAL CO., LTD., priority 2012, dated 2016).
Converted amounts (≈) assume the structure as drawn.

What was measured:
Test in all cases: MTT cell growth inhibition, leukemia cells
[1] = system: H9 (acute lymphoblastic leukemia) cells; assay type: cell-based, human; details: Homo sapiens, H9, 72 h, MTT; for IC50: read-out: IC50; for IC90: read-out: IC90
Method in brief: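 Viability was read by MTT after 72 h of compound exposure at 37° C. under 5% CO2. Compounds were added at a range of concentrations one day after plating 6000 leukemia cells per well in RPMI-1640 containing 10% fetal bovine serum.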

[2] = system: K562/ADR (K562adr, drug-resistant chronic myeloid leukemia) cells; assay type: cell-based; details: Homo sapiens, K562/ADR, 72 h, MTT; for IC50: read-out: IC50; for IC90: read-out: IC90
From the text: (§1) Leukemia cell lines: leukemia cell lines: K562adr (drug-resistant, chronic myeloid leukemia, CML), NB4 (acute promyelocytic leukemia, AML), Kasumi-1 (acute myeloid leukemia M2 type, AML-M2), Jurkat (acute lymphoblastic leukemia, ALL), all of which were donated by Cancer Research Institute of Zhejiang University, China; and H9 (acute lymphoblastic leukemia, ALL), which was purchased from China Center for Type Culture Collection.
(§2) Reagents: The standard sample of fangchinoline (FAN) was purchased from Ci Yuan Biotechnology Co., Ltd., Shaanxi, China; and the 7-substituted fangchinoline derivatives according to the present invention.
(§3) 6000 well-growing leukemia cells were obtained and inoculated into wells of a 96-well cell culture plate. The culture medium was a RPMI-1640 cell culture medium containing 10% fetal bovine serum. After adding the 7-substituted fangchinoline derivatives of different concentrations the next day and mixing uniformly, the plate was placed in a carbon dioxide cell incubator (5% CO2) at 37° C. and incubating for 72 hours. Then the viable cell concentration was determined by the MTT method.

[3] = system: NB4 (acute promyelocytic leukemia) cells; assay type: cell-based; details: Homo sapiens, NB4, 72 h, MTT; for IC50: read-out: IC50; for IC90: read-out: IC90
From the text: as §1, §2, §3

| IC50 [1] | IC90 [1] | IC50 [2] | IC90 [2] | IC50 [3] | IC90 [3] | Structure (SMILES) |
| --- | --- | --- | --- | --- | --- | --- |
| 1.8 µg/mL (≈ 2.35 µM) | 3.3 µg/mL (≈ 4.3 µM) | 0.6 µg/mL (≈ 0.782 µM) | 2.15 µg/mL (≈ 2.8 µM) | 0.99 µg/mL (≈ 1.29 µM) | 2.93 µg/mL (≈ 3.82 µM) | COc1ccc2cc1Oc1ccc(cc1)C[C@H]1c3cc(c(OC)cc3CCN1C)Oc1c(OCc3ccc(C(F)(F)F)cc3)c(OC)cc3c1[C@H](C2)N(C)CC3 [BS-FC-216] |
| 2.4 µg/mL (≈ 3.15 µM) | 6.4 µg/mL (≈ 8.39 µM) | 0.4 µg/mL (≈ 0.524 µM) | 3.03 µg/mL (≈ 3.97 µM) | 0.38 µg/mL (≈ 0.498 µM) | 0.94 µg/mL (≈ 1.23 µM) | COc1ccc2cc1Oc1ccc(cc1)C[C@H]1c3cc(c(OC)cc3CCN1C)Oc1c(OS(=O)(=O)c3ccc(C)cc3)c(OC)cc3c1[C@H](C2)N(C)CC3 [BS-FC-102] |
| 1.45 µg/mL (≈ 1.97 µM) | 2.9 µg/mL (≈ 3.94 µM) | 0.6 µg/mL (≈ 0.815 µM) | 1.73 µg/mL (≈ 2.35 µM) | 0.47 µg/mL (≈ 0.639 µM) | 0.95 µg/mL (≈ 1.29 µM) | COc1ccc2cc1Oc1ccc(cc1)C[C@H]1c3cc(c(OC)cc3CCN1C)Oc1c(OCC(O)CNCC3CC3)c(OC)cc3c1[C@H](C2)N(C)CC3 (stereo partly drawn) [BS-FC-405] |
| 1.3 µg/mL (≈ 1.69 µM) | 3.6 µg/mL (≈ 4.69 µM) | 0.19 µg/mL (≈ 0.247 µM) | 2.15 µg/mL (≈ 2.8 µM) | 0.99 µg/mL (≈ 1.29 µM) | 2.86 µg/mL (≈ 3.72 µM) | COc1ccc2cc1Oc1ccc(cc1)C[C@H]1c3cc(c(OC)cc3CCN1C)Oc1c(OCC(O)CN3CCSCC3)c(OC)cc3c1[C@H](C2)N(C)CC3 (stereo partly drawn) [BS-FC-417] |
| 1.2 µg/mL (≈ 1.55 µM) | 2 µg/mL (≈ 2.59 µM) | 0.48 µg/mL (≈ 0.621 µM) | 2.83 µg/mL (≈ 3.66 µM) | 0.22 µg/mL (≈ 0.285 µM) | 0.96 µg/mL (≈ 1.24 µM) | COc1cc(OC)cc(C(=O)Oc2c(OC)cc3c4c2Oc2cc5c(cc2OC)CCN(C)[C@H]5Cc2ccc(cc2)Oc2cc(ccc2OC)C[C@@H]4N(C)CC3)c1 [BS-FC-311] |
| 2.2 µg/mL (≈ 2.99 µM) | 3.7 µg/mL (≈ 5.04 µM) | 0.38 µg/mL (≈ 0.517 µM) | 1.92 µg/mL (≈ 2.61 µM) | 0.39 µg/mL (≈ 0.531 µM) | 2.57 µg/mL (≈ 3.5 µM) | COc1ccc2cc1Oc1ccc(cc1)C[C@H]1c3cc(c(OC)cc3CCN1C)Oc1c(OCc3cccc(F)c3F)c(OC)cc3c1[C@H](C2)N(C)CC3 [BS-FC-204] |
| 1 µg/mL (≈ 1.34 µM) | 4.99 µg/mL (≈ 6.66 µM) | 0.42 µg/mL (≈ 0.561 µM) | 2.65 µg/mL (≈ 3.54 µM) | 0.28 µg/mL (≈ 0.374 µM) | 0.92 µg/mL (≈ 1.23 µM) | COc1ccc2cc1Oc1ccc(cc1)C[C@H]1c3cc(c(OC)cc3CCN1C)Oc1c(OS(=O)(=O)c3ccccc3)c(OC)cc3c1[C@H](C2)N(C)CC3 [BS-FC-104] |
| 1.96 µg/mL (≈ 2.96 µM) | 4 µg/mL (≈ 6.03 µM) | 0.33 µg/mL (≈ 0.498 µM) | 1.31 µg/mL (≈ 1.98 µM) | 0.57 µg/mL (≈ 0.86 µM) | 1.88 µg/mL (≈ 2.84 µM) | C=C(C)COc1c(OC)cc2c3c1Oc1cc4c(cc1OC)CCN(C)[C@H]4Cc1ccc(cc1)Oc1cc(ccc1OC)C[C@@H]3N(C)CC2 [BS-FC-221] |
| 2 µg/mL (≈ 2.61 µM) | 3.77 µg/mL (≈ 4.93 µM) | 0.26 µg/mL (≈ 0.34 µM) | 2.14 µg/mL (≈ 2.8 µM) | 0.33 µg/mL (≈ 0.431 µM) | 1.32 µg/mL (≈ 1.72 µM) | COc1ccc2cc1Oc1ccc(cc1)C[C@H]1c3cc(c(OC)cc3CCN1C)Oc1c(OC(=O)c3c(F)cccc3Cl)c(OC)cc3c1[C@H](C2)N(C)CC3 [BS-FC-315] |
